From patent US20240277739A1, “NUTRITONAL COMPOSITIONS FOR GUT BARRIER FUNCTION” (N.V. Nutricia, priority 2021, published 2024)

What was measured:
[1] = system: interleukin-8 (IL-8 or CXCL8) release; experiment: DON-induced IL-8 (CXCL8) release from Caco-2 cells, ELISA; assay type: cell-based, human; settings: DON 4.2 μM alone
Procedure: (§1) beta1,3′-galactosyl-lactose (beta3′-GL), beta1,4′-galactosyllactose (beta4′-GL) and beta1,6′-galactosyl-lactose (beta6′-GL) were obtained from Carbosynth (Berkshire, UK), alpha1,3′-galactosyl-lactose (alpha3′-GL) was obtained from Elicityl (Crolles, France). Purified deoxydivalenol (DON) (D0156; Sigma Aldrich, St Luis, MO, USA) was dissolved in pure ethanol and stored at −20° C. Human epithelial colorectal adenocarcinoma (Caco-2) cells were obtained from American Type Tissue Collection (Code HTB-37) (Manasse, VA, USA, passage 90-102).
Caco-2 cells were used according to established methods. […] After 17-19 days of culturing, a confluent monolayer was obtained with a mean Transepithelial electrical resistance (TEER) exceeding 400 Ω cm^2 measured by a Millicell-Electrical Resistance System voltohm-meter (Millipore, Temecula, CA, USA). […]
Measurements of the transepithelial electrical resistance (TEER) and lucifer yellow (LY) permeability were conducted to investigate barrier integrity. […] Results are expressed as a percentage of the initial value. […] Release of interleukin-8 (IL-8 or CXCL8), which is a typical marker for inflammation, was quantified in the medium of the apical side and the basolateral side of the Caco-2 transwell inserts in response to the treatments. […]

[2] = system: T84 human intestinal epithelial cells; experiment: TEER of T84 monolayers pre-incubated with fatty acids, SCFA mix or combination; assay type: cell-based; settings: for % TEER (24 h): relative to medium control at 24 h; for increase of gut barrier function (TEER) versus control: fatty acid 50 μM in combination with SCFA 40 mM; for increase of gut barrier function (TEER) versus control / change of gut barrier function (TEER) versus control: 24 h; for increase of gut barrier function expected for an additive effect: fatty acid 50 μM plus SCFA 40 mM; for change of gut barrier function (TEER) versus control: single ingredient: fatty acid 50 μM or SCFA mix 40 mM
Excerpt: The effect of palmitic acid and oleic acid combined with a mixture of short chain fatty acids (SCFA mix) having a concentration profile that is typical for fermentation of a mixture of galacto-oligosaccharides (GOS) derived from VivinalGOS and long chain fructo-oligosaccharides (RaftilineHP) in a ratio of 9/1 (w/w) on barrier permeability was investigated. The concentration profiles of SCFA is as disclosed in Example 3 of EP2100520 (incorporated by reference herein), specifically as shown in FIG. 3A of EP2100520 (incorporated by reference herein) (see second bar in FIG. 3A), i.e. about 75% being acetic acid. Oleic acid and palmitic acid were obtained from Sigma-Aldrich and coupled to fatty acid free Bovine Serum Albumin (BSA, Sigma-Aldrich) prior to cell treatment.
T84 human intestinal epithelial cells are commonly used to study intestinal barrier integrity in vitro. T84 cells (ATCC, USA) were cultured on 12 mm transwell inserts (0.4 μm, Corning Costrar, USA) in DMEM-F12 glutamax with penicillin-streptomycin (100 IU/ml), supplemented with […]. T84 cells were used 14 days after reaching confluence. Monolayers of T84 cultured on transwell filters were pre-incubated with fatty acids, SCFA mix or a combination thereof for a period of 24 hours.
Epithelial barrier integrity was assessed by measuring transepithelial resistance (TEER; Ω×cm^2) with the epithelial volt-ohm meter (Millicell ERS-2; Millipore USA). TEER measurements were performed at 0, 24, h of incubation. TEER values of the fatty acids (i.e. SCFA, OA, PA) are expressed relative to the medium control TEER values at 24 h.

Caco-2 cell monolayer [3] = experiment: TEER of Caco-2 monolayer, DON-induced impairment of barrier integrity; assay type: cell-based, human; settings: for TEER in the presence of DON (FIG. 3), single ingredient, in words: DON 4.2 μM, 0.75 wt % beta3′-GL or 600 μM fatty acid alone; for effect on DON-induced loss of epithelial barrier integrity, TEER (FIGS. 1A, 1B), in words: 0.75 wt. % GL, 24 h pretreatment, then DON 4.2 μM 24 h
Procedure: as §1
(§2) Caco-2 cells were used according to established methods. In brief: cells were cultured in Dulbecco's modified Eagle medium (DMEM) and seeded at a density of 0.3×10^5 cells into 0.3 cm^2 high pore density (0.4 μm) inserts with a polyethylene terephthalate membrane (BD Biosciences, Franklin Lakes, NJ, USA) placed in a 24-well plate. The Caco-2 cells were maintained in a humidified atmosphere of 95% air and 5% CO2 at 37° C. After 17-19 days of culturing, a confluent monolayer was obtained with a mean Transepithelial electrical resistance (TEER) exceeding 400 Ω cm^2 measured by a Millicell-Electrical Resistance System voltohm-meter (Millipore, Temecula, CA, USA).
(§3) Caco-2 cell monolayers were thus grown in a transwell system, which is a model for intestinal barrier function. The monolayers were pretreated for 24 h with different GLs, including beta3′-GL, alpha3′-GL, beta4′-GL and beta6′-GL in a concentration of 0.75 wt. % of the GL, before being exposed to the fungal toxin deoxynivalenol (DON), which is a trigger and model compound to impair intestinal barrier. DON was diluted to a final concentration of 4.2 μM in complete cell medium and added to the apical side as well as to the basolateral side of the transwell inserts. […] Incubation with DON was 24 h.
(§4) Measurements of the transepithelial electrical resistance (TEER) and lucifer yellow (LY) permeability were conducted to investigate barrier integrity. For TEER measurements a Millicel-ERS voltohmmeter connected to a pair of chopsticks electrodes was used to measure the TEER values. Results are expressed as a percentage of the initial value. For paracellular tracer flux assay the membrane impermeable lucifer yellow (LY) (Sigma, St Luis, MO, USA) was added in a concentration of 16 μg/ml to the apical compartment in the transwell plate for 4 h, and the paracellular flux was determined by measuring the fluorescence intensity in the basolateral compartment with a spectrophotofluorimeter (FLUOstar Optima, BMG Labtech, Offenburg, Germany) set at excitation and emission wavelengths of 410 and 520 nm, respectively. Release of interleukin-8 (IL-8 or CXCL8), which is a typical marker for inflammation, was quantified in the medium of the apical side and the basolateral side of the Caco-2 transwell inserts in response to the treatments. CXCL8 concentrations were measured by using the human IL-8 ELISA assay (BD Biosciences, Pharmingem, San Diego, CA, USA) according to manufacturer's instructions. For more details on materials and methods see Akbari et al, 2016, Eur J Nutr. 56(5):1919-1930.
(§5) For TOS concentrations of 0.25 wt. % (TOS 0.25) and 0.5 wt. % (TOS 0.5) were tested.
(§6) Barrier function experiments were performed using the method as described in example 3. Oleic acid (OA) and palmitic acid were obtained from Sigma-Aldrich. Palmitic acid was coupled to fatty acid free Bovine Serum Albumin (BSA, Roche) to make a 6:1 BSA-palmitic acid conjugate solution, which is needed to dissolve palmitic acid in culture medium and therefore common practice in the field (reference Alsabeeh et al, Biochim. Biophys Acta. 2018 February; 1863(2): 143-151). Throughout this document this conjugate solution will be abbreviated as PA.

Caco-2 cell monolayer [4] = experiment: TEER of Caco-2 monolayer with OA, PA, beta3′-GL and combinations (no DON); assay type: cell-based, human; settings: for effect on TEER at 100 μM fatty acid, in words: data not shown
Procedure: as §2, §4, §6
Tables 5a and 5b show the effects of OA and PA and beta3′-GL and its combinations on the intestinal barrier function as measured by TEER.

Caco-2 cell monolayer [5] = experiment: Lucifer yellow (LY) paracellular flux across Caco-2 monolayer, DON-induced impairment; assay type: cell-based, human; settings: for effect on DON-induced loss of epithelial barrier integrity, LY flux (FIGS. 1C, 1D), in words: 0.75 wt. % GL, 24 h pretreatment, then DON 4.2 μM 24 h
Procedure: as §1, §2, §3, §4, §5
Barrier function experiments were performed using the method as described in example 3. Oleic acid (OA) and palmitic acid were obtained from Sigma-Aldrich. […]

[6] = system: infant microbiota (pooled fecal samples from 3 healthy infants); experiment: Fermentation of galactosyllactoses by infant fecal microbiota (i-Screen anaerobic colon model); set-up: species or system human; acetate / lactate: unit not given here; settings: for acetate / lactate: t = 24 h
Procedure: The effect of pure 3′-GL, 4′-GL, and 6′-GL of the three galactosyllactoses functionality (pH, lactate, acetate levels) was evaluated. Beta1,3-galactosyllactose (beat3′-GL), beta1,4-galactosyllactose (beta4′-GL) and beta1,6-galactosyllactose (beta6′-GL) were obtained from Carbosynth (Berkshire, UK) Measurements of all parameters were performed after a 24-hour incubation in the high-throughput anaerobic colon model, i-Screen™ (TNO, Zeist, the Netherlands).
Fecal samples from 3 healthy infants (aged 1-4 months) were pooled and activated for 4 hours in a modified standard ileal efflux medium (pH 6.0) at 37° C. under anaerobic conditions. Next, each GL was added. After an incubation for 24 hours at 37° C. under anaerobic conditions, samples were collected for further analysis and pH levels were immediately measured using a pH meter MultiCal pH 526 (WTW, Weilheim, Germany). The samples were centrifuged at 4,000 g for 5 minutes and the supernatant was filter sterilized using 0.45 μm filters. For the SCFA analysis, a mixture of formic acid ([…]), methanol and 2-ethyl butyric acid (internal standard, 2 mg/ml in methanol) was added to the filtered supernatant. A 3 μl sample with a split ratio of 75.0 was injected on a GC-column (ZB-5HT inferno, ID 0.52 mm, film thickness 0.10 μm; Zebron; phenomenex, USA) in a Shimadzu GC-2014 gas chromatograph. The levels of acetic acid and lactic acid were measured. For lactate analysis, the total of D- and L-lactate was determined the filtered supernatant by the Arena 20XL analyser. This assay is based on the D- and L-lactic acid assay kits (Thermo Fisher Scientific oy, www.e-labeling.eu/TSF9843061FU and www.e-labeling.eu/TSF9843081FU). The assay was performed following the manufacturer's instructions with one adaptation: the reagents DLac RI and LLac RI from the two kits were mixed in a 1:1 ratio to detect both L and D isomers of lactic acid simultaneously. Calibration of the assay was done with an ‘Acid combination standard’ (order number 984382) containing both L-lactic acid and D-lactic acid.

[7] = fatty acid 50 μM + SCFA mix 40 mM
[8] = fatty acid 50 μM, SCFA mix 0 mM

Compound	TEER in the presence of DON (FIG. 3), single ingredient, in words (Caco-2 cell monolayer [3])	effect on DON-induced loss of epithelial barrier integrity, TEER (FIGS. 1A, 1B), in words (Caco-2 cell monolayer [3])	effect on DON-induced loss of epithelial barrier integrity, LY flux (FIGS. 1C, 1D), in words (Caco-2 cell monolayer [5])	acetate ([6]; 3 mg/ml)	lactate ([6]; 3 mg/ml)	acetate ([6]; 9 mg/ml)	lactate ([6]; 9 mg/ml)	other results
CC1=C[C@H]2O[C@@H]3[C@H](O)C[C@](C)([C@@]2(CO)[C@H](O)C1=O)[C@]31CO1 [DON, deoxynivalenol]	–	–	–	–	–	–	–	CXCL8 (IL-8) release (FIG. 2), in words [1]: increased CXCL8 (IL-8) release
CCCCCCCC/C=C\CCCCCCCC(=O)O [OA, oleic acid]	somewhat higher than in the control	–	–	–	–	–	–	% TEER (24 h) [2, 7]: 210%; increase of gut barrier function (TEER) versus control [2]: 110%; increase of gut barrier function expected for an additive effect [2]: 94%; % TEER (24 h) [2, 8]: 134%; change of gut barrier function (TEER) versus control [2]: 34%; effect on TEER at 100 μM fatty acid, in words (Caco-2 cell monolayer [4]): improving effect on TEER was also observed; % TEER (24 h) (Caco-2 cell monolayer [4]; Table 5a: oleic acid 600 μM, beta3′GL 0, relative to the medium control): 138%
CCCCCCCCCCCCCCCC(=O)O [PA, palmitic acid]	did not improve the TEER in the presence of DON	–	–	–	–	–	–	% TEER (24 h) [2, 7]: 143%; increase of gut barrier function (TEER) versus control [2]: 43%; increase of gut barrier function expected for an additive effect [2]: 54%; % TEER (24 h) [2, 8]: 94%; change of gut barrier function (TEER) versus control [2]: −6%; gut barrier function by LYF assay, fatty acid alone, in words (Caco-2 cell monolayer [5]; DON model, data not shown): A similar effect was observed; effect on TEER at 100 μM fatty acid, in words (Caco-2 cell monolayer [4]): This effect on TEER was also observed; % TEER (24 h) (Caco-2 cell monolayer [4]; Table 5b: palmitic acid 600 μM, 3′GL 0): 69%
OC[C@H]1O[C@H](O[C@H]2[C@@H](O)[C@@H](CO)O[C@@H](O[C@H]3[C@H](O)[C@@H](O)C(O)O[C@@H]3CO)[C@@H]2O)[C@H](O)[C@@H](O)[C@H]1O (stereo partly drawn) [alpha3′-GL, Gal (alpha 1-3)-Gal (beta 1-4)-Glc]	–	did not prevent the DON-induced disrupted intestinal barrier	did not prevent the DON-induced disrupted intestinal barrier	–	–	–	–	–
OC[C@H]1O[C@@H](O[C@@H]2[C@H](O)[C@@H](O)[C@H](O[C@H]3[C@H](O)[C@@H](O)C(O)O[C@@H]3CO)O[C@@H]2CO)[C@H](O)[C@@H](O)[C@H]1O (stereo partly drawn) [beta4′-GL, Gal (beta 1-4)-Gal (beta 1-4)-Glc]	–	did not show a significant effect	did not show a significant effect	52.2	0.0	65.4	3.6	–
OC[C@H]1O[C@@H](OC[C@H]2O[C@@H](O[C@H]3[C@H](O)[C@@H](O)C(O)O[C@@H]3CO)[C@H](O)[C@@H](O)[C@H]2O)[C@H](O)[C@@H](O)[C@H]1O (stereo partly drawn) [beta6′-GL, Gal (beta 1-6) Gal (beta 1-4)-Glc]	–	did not show a significant effect	did not show a significant effect	51.9	0.0	74.3	2.7	–
Gal (beta 1-3)-Gal (beta 1-4)-Glc [beta3′-GL]	somewhat higher than in the control	increased TEER values	reduction in the DON-affected LY flux	61.3	0.0	77.1	1.3	pH, acetate and lactate after fermentation, in words ([6]; 24 h incubation): the highest levels of acetate and lactate and the lowest pH level; beta3′-GL concentration at which the effect on gut barrier function is observed (Caco-2 cell monolayer [3]; beta3′-GL content of the TOS tested, DON model): lower than 0.17 wt. %; % TEER (24 h) (Caco-2 cell monolayer [4]; Table 5a: beta3′GL 0.75 w/v %, oleic acid 0, relative to the medium control): 117%; % TEER (24 h) (Caco-2 cell monolayer [4]; Table 5b: 3′GL 0.75, palmitic acid 0): 129%
